The NIST ThermoML archive (doi:10.1021/acs.jced.9b00134)
± gives the expanded uncertainty stated by the source.

Assays:
[1] = 293.15 K, 101.13 kPa, Vibrating tube method
[2] = xn = mol fraction of the nth substance listed; conditions: 101.13 kPa, Liquid, x1 = 0.5; for mass density: Vibrating tube method; for electrical conductivity: Alternating current cell with electrodes; for viscosity: Concentric cylinders viscometry
[3] = refractive index (Na D-line) (dimensionless); xn = mol fraction of the nth substance listed; conditions: 101.13 kPa, Liquid, Standard Abbe refractometry, x1 = 0.5

CCC(O)CO (stereo not given) [1,2-butanediol]
Conditions	mass density [kg/m3]
[1], Liquid	1000 ± 20

C[N+](C)(C)Cc1ccccc1.[Cl-] [trimethylbenzylammonium chloride] + OCCO
Conditions	electrical conductivity, [2] [S/m]	mass density, [2] [kg/m3]	refractive index, [3]	viscosity, [2] [mPa·s]
293 K	–	1123.7 ± 20	1.4806 ± 0.0009	–
298 K	0.539 ± 0.11	1118 ± 20	1.4763 ± 0.0008	137.3 ± 11
303 K	0.706 ± 0.14	1111.2 ± 20	1.4731 ± 0.0007	96.5 ± 11
308 K	0.843 ± 0.17	1105.1 ± 20	1.4695 ± 0.0008	54.6 ± 8.8
313 K	0.902 ± 0.18	1098 ± 20	1.4652 ± 0.0008	28.9 ± 4.4
318 K	0.965 ± 0.19	1091 ± 20	1.4611 ± 0.0007	20.7 ± 2
323 K	1.02 ± 0.2	1085 ± 20	1.4587 ± 0.0006	14.2 ± 1.8

C[N+](C)(C)Cc1ccccc1.[Cl-] [trimethylbenzylammonium chloride] + OCC(O)CO
Conditions	electrical conductivity, [2] [S/m]	mass density, [2] [kg/m3]	refractive index, [3]	viscosity, [2] [mPa·s]
293 K	–	1170.3 ± 20	1.5653 ± 0.0008	–
298 K	0.0688 ± 0.014	1167.2 ± 20	1.5612 ± 0.0007	383.9 ± 59
303 K	0.115 ± 0.023	1164.3 ± 20	1.5587 ± 0.0007	159.6 ± 40
308 K	0.123 ± 0.025	1161.4 ± 20	1.556 ± 0.0007	79.8 ± 14
313 K	0.126 ± 0.025	1158.4 ± 20	1.5532 ± 0.0007	48.5 ± 6.5
318 K	0.123 ± 0.025	1155 ± 20	1.5503 ± 0.0006	29.7 ± 4
323 K	0.178 ± 0.036	1152.4 ± 20	1.5493 ± 0.0005	18.3 ± 3

OCC(O)CO [glycerol]
Conditions	mass density [kg/m3]
[1], Liquid	1238 ± 20

C[N+](C)(C)Cc1ccccc1.[Cl-] [trimethylbenzylammonium chloride] + CCC(O)CO
Conditions	electrical conductivity, [2] [S/m]	mass density, [2] [kg/m3]	refractive index, [3]	viscosity, [2] [mPa·s]
293 K	–	1104 ± 20	1.4982 ± 0.0006	–
298 K	0.194 ± 0.039	1093 ± 20	1.4956 ± 0.0007	231.7 ± 27
303 K	0.312 ± 0.063	1083 ± 20	1.4921 ± 0.0007	128.5 ± 22
308 K	0.382 ± 0.076	1073 ± 20	1.4892 ± 0.0007	64.2 ± 12
313 K	0.437 ± 0.087	1064 ± 20	1.4851 ± 0.0007	34.5 ± 5.5
318 K	0.465 ± 0.093	1057 ± 20	1.4823 ± 0.0007	22.1 ± 2.2
323 K	0.532 ± 0.11	1049 ± 20	1.4781 ± 0.0008	17.9 ± 1.2

OCCCCCCO [1,6-hexanediol]
Conditions	mass density [kg/m3]
[1], Liquid	947 ± 20

OCCO [1,2-ethanediol]
Conditions	mass density [kg/m3]
[1], Liquid	1105 ± 20

C[N+](C)(C)Cc1ccccc1.[Cl-] [trimethylbenzylammonium chloride]
Conditions	mass density [kg/m3]
[1], Crystal	1061 ± 20

C[N+](C)(C)Cc1ccccc1.[Cl-] [trimethylbenzylammonium chloride] + OCCCCCCO
Conditions	electrical conductivity, [2] [S/m]	mass density, [2] [kg/m3]	refractive index, [3]	viscosity, [2] [mPa·s]
293 K	–	1142.3 ± 20	1.5143 ± 0.0007	–
298 K	0.0842 ± 0.017	1132.6 ± 20	1.5107 ± 0.0007	298.3 ± 41
303 K	0.145 ± 0.029	1126.2 ± 20	1.5083 ± 0.0006	143.6 ± 29
308 K	0.17 ± 0.034	1119.7 ± 20	1.5052 ± 0.0007	72.9 ± 14
313 K	0.184 ± 0.037	1113.4 ± 20	1.5016 ± 0.0007	38.7 ± 6.4
318 K	0.195 ± 0.039	1107.1 ± 20	1.4987 ± 0.0006	23.5 ± 2.9
323 K	0.253 ± 0.051	1100 ± 20	1.4963 ± 0.0006	16.8 ± 1.8

O=C([O-])[O-].[Na+].[Na+] [sodium carbonate]
Conditions	mass density [kg/m3]
[1], Crystal	2516 ± 23
